Values of other authors in PMC5281649 (European Journal of Nuclear Medicine and Molecular Imaging, 2016).

Experiments:
[1] = set-up: method as in doi:10.1016/S0924-977X(99)80017-0; conditions: doses providing full blockade of the enzyme; cited from earlier work
[2] = in vivo; cited from earlier work
[3] = cited from earlier work

SMILES	Effect on cognition and functionality in patients with AD [1]	Reason development not continued [2]	Effect in 2-year trial in patients with moderate AD [3]	Long-term effect on cognition in patients with moderate-to-severe AD [3]
NCCNC(=O)c1ccc(Cl)cn1 [lazabemide]	significant improvement in cognition and functionality	hepatotoxic liability	–	–
C#CCN(C)[C@H](C)Cc1ccccc1 [selegiline]	–	–	may delay functional deterioration and disease progression	no long-term benefit on cognition
